Reference: patent publication US20130157852A1, “HERBICIDAL COMPOSITION CONTAINING FLUROXYPYR AND GLYPHOSATE” (DOW AGROSCIENCES LLC, priority 2011, published 2013)

What was measured:
Type in all cases: in vivo
[1] = tested on: Commelina benghalensis L. (COMBE, Bengal dayflower); experiment: Postemergence field weed control, COMBE; settings: 28 DAA
Protocol: (§1) Evaluation of Postemergence Herbicidal Activity of Mixtures under Field Conditions Methodology
(§2) Trial sites were located in various countries around the world, including Brazil, United States, Hungary, Indonesia and Malaysia, in non-crop and perennial tree crop plantations. Trials were conducted using normal small plot R&D trials using standard research methodology. Trial plots were between 2 to 4 meters (m) wide by 3 to 10 m long. All treatments were applied using a randomized complete block or factorial trial design with 3-4 replications per treatment. The trial sites had naturally occurring populations of weeds. The weed spectrum included, but was not limited to, scarlet pimpernel (Anagallis arvensis L., ANGAR), tropical carpetgrass (Axonopus compressus, AXOCO), Canada thistle (Cirsium arvense (L.) Scop., CIRAR), calopo (Calopogonium mucunoides, CLOMU), Bengal dayflower (Commelina benghalensis L., COMBE), field bindweed (Convolvus arvensis, CONAR), horseweed (Conyza canadensis (L.) Cronq., ERICA), kochia (Kochia scoparia (L.) Schrad., KCHSC), common mallow (Malva neglecta Wallr., MALNE), African mile-a-minute (Mikania cordata (Burm. f.) B. L., MIKCO), slender panicgrass (Ottochloa nodosa, OTTNO), paspalum (Paspalum conjugatum Bergius, PASCO), wild buckwheat (Polygonum convolvulus L., POLCO) and stinging nettle (Urtica dioica L., URTDI). […]

[2] = tested on: Anagallis arvensis L. (ANGAR, scarlet pimpernel); experiment: Postemergence field weed control, ANGAR; settings: 14 DAA
Protocol: as §1, §2

[3] = tested on: Cirsium arvense (L.) Scop. (CIRAR, Canada thistle); experiment: Postemergence field weed control, CIRAR
Protocol: as §1
(§3) Trial sites were located in various countries around the world, including Brazil, United States, Hungary, Indonesia and Malaysia, in non-crop and perennial tree crop plantations. Trials were conducted using normal small plot R&D trials using standard research methodology. Trial plots were between 2 to 4 meters (m) wide by 3 to 10 m long. All treatments were applied using a randomized complete block or factorial trial design with 3-4 replications per treatment. The trial sites had naturally occurring populations of weeds. The weed spectrum included, but was not limited to, scarlet pimpernel (Anagallis arvensis L., ANGAR), tropical carpetgrass (Axonopus compressus, AXOCO), Canada thistle (Cirsium arvense (L.) Scop., CIRAR), calopo (Calopogonium mucunoides, CLOMU), Bengal dayflower (Commelina benghalensis L., COMBE), field bindweed (Convolvus arvensis, CONAR), horseweed (Conyza canadensis (L.) Cronq., ERICA), kochia (Kochia scoparia (L.) Schrad., KCHSC), common mallow (Malva neglecta Wallr., MALNE), African mile-a-minute (Mikania cordata (Burm. f.) B. L., MIKCO), slender panicgrass (Ottochloa nodosa, OTTNO), paspalum (Paspalum conjugatum Bergius, PASCO), wild buckwheat (Polygonum convolvulus L., POLCO) and stinging nettle (Urtica dioica L., URTDI).
(§4) Treatments consisted of tank mixes of commercially available formulations of fluoroxypyr-meptyl ester (Starane® 200, Starane® 250, Starane® Ultra) and glyphosate (Roundup® isopropylammonium salt, Glizmax, Gliz) applied in water. The application volume varied from location to location but was from 100 to 450 liters per hectare (L/ha). Application was made using a precision gas backpack sprayer at pressures ranging from 150 to 300 kPA pressure using 2 to 4 m booms utilizing 4 to 8 flat fan nozzles to broadcast the treatments to the weeds and to the soil.
(§5) The treated and control plots were rated blind at various intervals after application. Ratings were based on Percent (%) Visual weed control, where 0 corresponds to no control and 100 corresponds to complete control.
(§6) Colby's equation was used to determine the herbicidal effects expected from the mixtures (Colby, S. R. Calculation of the synergistic and antagonistic response of herbicide combinations. Weeds 1967 15, 20-22).
(§7) The following equation was used to calculate the expected activity of mixtures containing two active ingredients, A and B:
(§8) A=observed efficacy of active ingredient A at the same concentration as used in the mixture;
(§9) B=observed efficacy of active ingredient B at the same concentration as used in the mixture.

[4] = tested on: Calopogonium mucunoides (CLOMU, calopo); experiment: Postemergence field weed control, CLOMU; settings: 70 DAA
Protocol: as §1, §2

[5] = tested on: Axonopus compressus (AXOCO, tropical carpetgrass); experiment: Postemergence field weed control, AXOCO; settings: 70 DAA
Protocol: as §1, §2

[6] = tested on: Conyza canadensis (L.) Cronq. (ERICA, horseweed); experiment: Postemergence field weed control, ERICA; settings: 43 DAA
Protocol: as §1, §3, §4
The treated and control plots were rated blind at various intervals after application. […]

[7] = tested on: Urtica dioica L. (URTDI, stinging nettle); experiment: Postemergence field weed control, URTDI; settings: 28 DAA
Protocol: as §1, §2

[8] = tested on: Mikania cordata (MIKCO, African mile-a-minute); experiment: Postemergence field weed control, MIKCO; settings: 28 DAA
Protocol: as §1, §2

[9] = tested on: Kochia scoparia (L.) Schrad. (KCHSC, kochia); experiment: Postemergence field weed control, KCHSC; settings: 36 DAA
Protocol: as §1, §2

[10] = tested on: Ottochloa nodosa (OTTNO, slender panicgrass); experiment: Postemergence field weed control, OTTNO; settings: 70 DAA
Protocol: as §1, §2

[11] = tested on: Convolvus arvensis (CONAR, field bindweed); experiment: Postemergence field weed control, CONAR; settings: 59 DAA
Protocol: as §1, §3, §4, §5, §6, §7, §8, §9

[12] = tested on: Polygonum convolvulus L. (POLCO, wild buckwheat); experiment: Postemergence field weed control, POLCO; settings: 14 DAA
Protocol: as §1, §3, §4, §5, §6, §7, §8, §9

[13] = tested on: Paspalum conjugatum Bergius (PASCO, sour paspalum); experiment: Postemergence field weed control, PASCO; settings: 70 DAA
Protocol: as §1, §2

[14] = tested on: Malva neglecta Wallr. (MALNE, common mallow); experiment: Postemergence field weed control, MALNE; settings: 14 DAA
Protocol: as §1, §2

[15] = fluroxypyr-meptyl 200 grams ae/ha alone
[16] = fluroxypyr-meptyl 53 gae/ha alone
[17] = fluroxypyr-meptyl 200 grams ae/ha alone, Table 3
[18] = fluroxypyr-meptyl 400 grams ae/ha alone, Table 4
[19] = glyphosate-isopropylammonium 1000 grams ae/ha alone
[20] = glyphosate-isopropylammonium 500 gae/ha alone

CCCCCCC(C)OC(=O)COc1nc(F)c(Cl)c(N)c1Cl (stereo not drawn) [Fluroxypyr-meptyl, fluoroxypyr-meptyl]
COMBE Obs (Observed weed control) [1, 15]: 36% | ANGAR Obs (Observed weed control) ([2]; fluroxypyr-meptyl 400 grams ae/ha alone): 0% | CIRAR Obs (Observed weed control) ([3]; fluroxypyr-meptyl 300 grams ae/ha alone, 59 DAA): 3% | CIRAR Obs (Observed weed control) ([3]; fluroxypyr-meptyl 400 grams ae/ha alone, 14 DAA): 7% | CLOMU Obs (Observed weed control) [4, 16]: 69% | AXOCO Obs (Observed weed control) [5, 16]: 0% | ERICA Obs (Observed weed control) ([6]; fluroxypyr-meptyl 140 grams ae/ha alone): 4% | URTDI Obs (Observed weed control) [7, 15]: 10% | MIKCO Obs (Observed weed control) ([8]; fluroxypyr-meptyl 50 grams ae/ha alone): 42% | KCHSC Obs (Observed weed control) ([9]; fluroxypyr-meptyl 67 grams ae/ha alone): 48% | OTTNO Obs (Observed weed control) [10, 16]: 0% | CONAR Obs (Observed weed control) [11, 17]: 47% | CONAR Obs (Observed weed control) ([11]; fluroxypyr-meptyl 300 grams ae/ha alone, Table 4): 50% | CONAR Obs (Observed weed control) [11, 18]: 48% | POLCO Obs (Observed weed control) [12, 17]: 52% | POLCO Obs (Observed weed control) ([12]; fluroxypyr-meptyl 400 grams ae/ha alone, Table 3): 68% | POLCO Obs (Observed weed control) [12, 18]: 60% | PASCO Obs (Observed weed control) [13, 16]: 0% | MALNE Obs (Observed weed control) [14, 15]: 48%

O=C(O)CNCP(=O)(O)O [Glyphosate-isopropylammonium, glyphosate-isopropylammonium]
COMBE Obs (Observed weed control) ([1]; glyphosate-isopropylammonium 710 grams ae/ha alone): 43% | ANGAR Obs (Observed weed control) [2, 19]: 43% | CIRAR Obs (Observed weed control) ([3]; glyphosate-isopropylammonium 1000 grams ae/ha alone, 14 DAA): 58% | CIRAR Obs (Observed weed control) ([3]; glyphosate-isopropylammonium 1000 grams ae/ha alone, 59 DAA): 58% | CLOMU Obs (Observed weed control) [4, 20]: 64% | AXOCO Obs (Observed weed control) [5, 20]: 59% | ERICA Obs (Observed weed control) ([6]; glyphosate-isopropylammonium 560 grams ae/ha alone): 18% | ERICA Obs (Observed weed control) ([6]; glyphosate-isopropylammonium 840 grams ae/ha alone): 73% | URTDI Obs (Observed weed control) ([7]; glyphosate-isopropylammonium 1100 grams ae/ha alone): 24% | MIKCO Obs (Observed weed control) ([8]; glyphosate-isopropylammonium 360 grams ae/ha alone): 58% | KCHSC Obs (Observed weed control) ([9]; glyphosate-isopropylammonium 280 grams ae/ha alone): 23% | OTTNO Obs (Observed weed control) [10, 20]: 59% | CONAR Obs (Observed weed control) ([11]; glyphosate-isopropylammonium 1500 grams ae/ha alone, Table 4): 43% | CONAR Obs (Observed weed control) ([11]; glyphosate-isopropylammonium 2000 grams ae/ha alone, Table 3): 55% | CONAR Obs (Observed weed control) ([11]; glyphosate-isopropylammonium 2000 grams ae/ha alone, Table 4): 55% | POLCO Obs (Observed weed control) ([12]; glyphosate-isopropylammonium 1000 grams ae/ha alone, Table 3): 25% | POLCO Obs (Observed weed control) ([12]; glyphosate-isopropylammonium 1000 grams ae/ha alone, Table 4): 25% | POLCO Obs (Observed weed control) ([12]; glyphosate-isopropylammonium 1500 grams ae/ha alone, Table 3): 60% | PASCO Obs (Observed weed control) [13, 20]: 59% | MALNE Obs (Observed weed control) [14, 19]: 14%
